Experimental findings from US7608619B2, “Substituted oxazole compounds with analgesic activity” (Gruenenthal GmbH, priority 2005, dated 2009) are described below.

Molecules are shown by their SMILES.

This test deals with T1, human μ-opiate receptor (Homo sapiens, UniProt P35372).
T1 construct: purchased Nen company, Zaventem, Belgium RB-HOM; host or cells: CHO-K1 cells (membrane preparation)
T1 sequence (P35372 whole entry): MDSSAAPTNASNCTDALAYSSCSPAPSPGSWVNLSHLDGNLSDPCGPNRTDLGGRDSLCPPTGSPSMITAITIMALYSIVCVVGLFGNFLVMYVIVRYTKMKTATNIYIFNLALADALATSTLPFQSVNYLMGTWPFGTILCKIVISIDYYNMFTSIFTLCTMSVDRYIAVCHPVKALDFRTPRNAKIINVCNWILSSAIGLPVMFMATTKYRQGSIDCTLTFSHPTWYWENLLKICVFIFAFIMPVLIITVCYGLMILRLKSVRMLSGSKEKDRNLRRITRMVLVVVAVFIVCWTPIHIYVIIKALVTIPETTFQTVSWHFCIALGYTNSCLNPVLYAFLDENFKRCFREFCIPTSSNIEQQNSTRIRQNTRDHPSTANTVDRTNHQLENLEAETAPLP
The experiment in a line: Affinity for the human μ-opiate receptor ([3H]-naloxone displacement, SPA, CHO-K1 membrane preparation). The conditions noted are these: test substance 1 μmole/l; displacement of 1 nmole/l [3H]-naloxone; percentage inhibition of the specific binding; read-out: μ-opioid receptor, % inhibition [1 μM]. On the procedure:
Method for Determining the Affinity for the Human μ-Opiate Receptor
The receptor affinity for the human μ-opiate receptor is determined in a homogeneous batch in microtiter plates. For this purpose dilution series of the substances to be tested are incubated for 90 minutes at room temperature with a receptor membrane preparation (15-40 μg protein/250 μl incubation batch) of CHO-K1 cells, which express the human μ-opiate receptor (RB-HOM receptor membrane preparation from the Nen company, Zaventem, Belgium), in the presence of 1 nmole/l of the radioactive ligand [^3H]-naloxone (NET719, Nen company, Zaventem, Belgium) and 1 mg WGA-SPA beads (wheat germ agglutinin SPA beads from Amersham/Pharmacia, Freiburg, Germany) in a total volume of 250 μl. 50 mmole/l of Tris-HCl supplemented with 0.05% sodium azide and with 0.06% bovine serum albumin is used as incubation buffer. In order to determine the non-specific binding, 25 μmole/l of naloxone is additionally added. After the end of the 90 minutes' incubation time the microtiter plates are centrifuged for 20 minutes at 1000 g and the radioactivity is measured in a beta counter (Microbeta-Trilux, PerkinElmer Wallac, Freiburg, Germany). The percentage displacement of the radioactive ligand from its binding to the human μ-opiate receptor at a concentration of the test substances of 1 μmole/l is determined and is given as percentage inhibition of the specific binding.
For the compound `CN(C)C(c1ccc(Cl)cc1)C1CCC(CC(c2nc(Cc3ccccc3)c(N3CCC(Cc4ccccc4)CC3)o2)N2CCN(Cc3ccccc3)CC2)CC1` (stereo not shown) [compound 62, [{4-[2-[4-benzyl-5-(4-benzyl-piperidin-1-yl)-oxazol-2-yl]-2-(4-benzyl-piperazin-1-yl)-ethyl]-cyclohexyl}-(4-chlorophenyl)-methyl]-dimethylamine], the inhibition (in general, the drop in the measured response relative to a control, in per cent) at 1 µM was found to be 87%.

Turning to `CN(C)C(c1cccc(F)c1)C1CCC(CC(c2nc(Cc3ccccc3)c(N3CCCC3)o2)N2CCOCC2)CC1` (stereo not shown) [compound 149, [{4-[2-(4-benzyl-5-pyrrolidin-1-yl-oxazol-2-yl)-2-morpholin-4-yl-ethyl]-cyclohexyl}-(3-fluorophenyl)-methyl]-dimethylamine], the inhibition at 1 µM came to 87%.

In the case of `CCN(CC)C(CC1CCC(C(c2cccs2)N(C)C)CC1)c1nc(Cc2ccccc2)c(N(C)CCc2ccccc2)o1` (stereo not shown) [compound 113, (4-benzyl-2-{1-diethylamino-2-[4-(dimethylaminothiophen-2-yl-methyl)-cyclohexyl]-ethyl}-oxazol-5-yl)-methylphenethylamine], the inhibition at 1 µM was 97%.

As to `COc1ccc(N2CCN(c3oc(C(CC4CCC(C(c5cccs5)N(C)C)CC4)N4CCN(c5ccc(OC)cc5)CC4)nc3Cc3ccccc3)CC2)cc1` (stereo not shown) [compound 164, [(4-{2-{4-benzyl-5-[4-(4-methoxyphenyl)-piperazin-1-yl]-oxazol-2-yl}-2-[4-(4-methoxyphenyl)-piperazin-1-yl]-ethyl}-cyclohexyl)-thiophen-2-yl-methyl]-dimethylamine], the inhibition at 1 µM turned out to be 93%.

Take `CN(C)C(c1cccs1)C1CCC(CC(c2nc(Cc3ccccc3)c(N3CCSCC3)o2)N2CCCCC2)CC1` (stereo not shown) [compound 110, ({4-[2-(4-benzyl-5-thiomorpholin-4-yl-oxazol-2-yl)-2-piperidin-1-yl-ethyl]-cyclohexyl}-thiophen-2-yl-methyl)-dimethylamine]: the inhibition at 1 µM is 97%.

For the compound `CC1CN(c2oc(C(C3CCC(C(c4cccs4)N(C)C)CC3)N3CCc4ccccc4C3)nc2Cc2ccccc2)CC(C)O1` (stereo not shown) [compound 148, ({4-[[4-benzyl-5-(2,6-dimethylmorpholin-4-yl)-oxazol-2-yl]-(3,4-dihydro-1H-isoquinolin-2-yl)-methyl]-cyclohexyl}-thiophen-2-yl-methyl)-dimethylamine], the inhibition at 1 µM was found to be 84%.

`CC1CCN(c2oc(C(CC3CCC(C(c4ccc(Cl)cc4)N(C)C)CC3)N3CCN(Cc4ccccc4)CC3)nc2Cc2ccccc2)CC1` (stereo not shown) [compound 64, [{4-[2-[4-benzyl-5-(4-methylpiperidin-1-yl)-oxazol-2-yl]-2-(4-benzyl-piperazin-1-yl)-ethyl]-cyclohexyl}-(4-chlorophenyl)-methyl]-dimethylamine]: the inhibition at 1 µM came out at 69%.

Regarding `COc1ccc(N2CCN(C(CC3CCC(C(c4cccs4)N(C)C)CC3)c3nc(Cc4ccccc4)c(N4CC(C)OC(C)C4)o3)CC2)cc1` (stereo not shown) [compound 165, [(4-{2-[4-benzyl-5-(2,6-dimethyl-morpholin-4-yl)-oxazol-2-yl]-2-[4-(4-methoxyphenyl)-piperazin-1-yl]-ethyl}-cyclohexyl)-thiophen-2-yl-methyl]-dimethylamine], the inhibition at 1 µM was determined as 93%.

As for `CN(C)C(c1cccs1)C1CCC(C(c2nc(Cc3ccccc3)c(N3CCC(Cc4ccccc4)CC3)o2)N2CCCCC2)CC1` (stereo not shown) [compound 23, [(4-{[4-benzyl-5-(4-benzyl-piperidin-1-yl)-oxazol-2-yl]-piperidin-1-yl-methyl}-cyclohexyl)-thiophen-2-yl-methyl]-dimethylamine], the inhibition at 1 µM worked out at 70%.

As to `CN(C)C(c1cccs1)C1CCC(CC(c2nc(Cc3ccccc3)c(N3CCC(Cc4ccccc4)CC3)o2)N2CCN(Cc3ccccc3)CC2)CC1` (stereo not shown) [compound 81, ({4-[2-[4-benzyl-5-(4-benzyl-piperidin-1-yl)-oxazol-2-yl]-2-(4-benzyl-piperazin-1-yl)-ethyl]-cyclohexyl}-thiophen-2-yl-methyl)-dimethylamine], the inhibition at 1 µM was 81%.

`CCN(CC)C(CC1CCC(C(c2ccc(F)cc2)N(C)C)CC1)c1nc(Cc2ccccc2)c(N2CCSCC2)o1` (stereo not shown) [compound 99, (1-(4-benzyl-5-thiomorpholin-4-yl-oxazol-2-yl)-2-{4-[dimethylamino-(4-fluorophenyl)-methyl]-cyclohexyl}-ethyl)-diethylamine]: the inhibition at 1 µM was found to be 62%.

Regarding `COc1ccc(N2CCN(c3oc(C(CC4CCC(C(c5cccs5)N(C)C)CC4)N4CCN(c5ccc(F)cc5)CC4)nc3Cc3ccccc3)CC2)cc1` (stereo not shown) [compound 162, [(4-{2-{4-benzyl-5-[4-(4-methoxy-phenyl)-piperazin-1-yl]-oxazol-2-yl}-2-[4-(4-fluorophenyl)-piperazin-1-yl]-ethyl}-cyclohexyl)-thiophen-2-yl-methyl]-dimethylamine], the inhibition at 1 µM was 96%.

On to `CC1CCCN(c2oc(C(CC3CCC(C(c4ccc(F)cc4)N(C)C)CC3)N3CCN(Cc4ccccc4)CC3)nc2Cc2ccccc2)C1` (stereo not shown) [compound 106, [{4-[2-[4-benzyl-5-(3-methylpiperidin-1-yl)-oxazol-2-yl]-2-(4-benzyl-piperazin-1-yl)-ethyl]-cyclohexyl}-(4-fluorophenyl)-methyl]-dimethylamine], for which the inhibition at 1 µM stood at 61%.

Take `CN(C)C(c1cccs1)C1CCC(C(c2nc(Cc3ccccc3)c(N3CCN(c4ccccc4)CC3)o2)N2CCCCC2)CC1` (stereo not shown) [compound 26, [(4-{[4-benzyl-5-(4-phenylpiperazin-1-yl)-oxazol-2-yl]-piperidin-1-yl-methyl}-cyclohexyl)-thiophen-2-yl-methyl]-dimethylamine]: the inhibition at 1 µM turned out to be 85%.

With `CC1CCCN(c2oc(C(CC3CCC(C(c4cccs4)N(C)C)CC3)N3CCCCC3)nc2Cc2ccccc2)C1` (stereo not shown) [compound 111, [(4-{2-[4-benzyl-5-(3-methylpiperidin-1-yl)-oxazol-2-yl]-2-piperidin-1-yl-ethyl}-cyclohexyl)-thiophen-2-yl-methyl]-dimethylamine], the inhibition at 1 µM was 92%.

Take `CC1CCN(c2oc(C(CC3CCC(C(c4cccs4)N(C)C)CC3)N3CCCCC3)nc2Cc2ccccc2)CC1` (stereo not shown) [compound 74, [(4-{2-[4-benzyl-5-(4-methylpiperidin-1-yl)-oxazol-2-yl]-2-piperidin-1-yl-ethyl}-cyclohexyl)-thiophen-2-yl-methyl]-dimethylamine]: the inhibition at 1 µM was determined as 79%.

With `CC1CN(c2oc(C(C3CCC(C(c4cccs4)N(C)C)CC3)N3CCOCC3)nc2Cc2ccccc2)CC(C)O1` (stereo not shown) [compound 141, [(4-{[4-benzyl-5-(2,6-dimethylmorpholin-4-yl)-oxazol-2-yl]-morpholin-4-yl-methyl}-cyclohexyl)-thiophen-2-yl-methyl]-dimethylamine], the inhibition at 1 µM was found to be 65%.

`CCN(CC)c1oc(C(CC2CCC(C(c3cccs3)N(C)C)CC2)N2CCCCC2)nc1Cc1ccccc1` (stereo not shown) [compound 109, (4-benzyl-2-{2-[4-(dimethylaminothiophen-2-yl-methyl)-cyclohexyl]-1-piperidin-1-yl-ethyl}-oxazol-5-yl)-diethylamine]: the inhibition at 1 µM amounted to 98%.

As for `CN(C)C(c1ccc(Cl)cc1)C1CCC(C(c2nc(Cc3ccccc3)c(N3CCCC3)o2)N2CCN(c3ccc(F)cc3)CC2)CC1` (stereo not shown) [compound 133, [(4-{(4-benzyl-5-pyrrolidin-1-yl-oxazol-2-yl)-[4-(4-fluorophenyl)-piperazin-1-yl]-methyl}-cyclohexyl)-(4-chlorophenyl)-methyl]-dimethylamine], the inhibition at 1 µM amounted to 64%.
